ChEMBL document CHEMBL1955806, “Design, synthesis, single-crystal and preliminary antitumor activity of novel arenesulfonylimidazolidin-2-ones” (2012)

Columns and labels:
Assay type in all cases: functional
CAKI-1 = experiment: Growth inhibition of human CAKI-1 cells at 10 uM after 48 hrs by sulforhodamine B assay; conditions: CAKI-1, 48 h, read-out: GI
MOLT-4 = experiment: Growth inhibition of human MOLT4 cells at 10 uM after 48 hrs by sulforhodamine B assay; conditions: MOLT-4, 48 h, read-out: GI
SF-295 = experiment: Growth inhibition of human SF295 cells at 10 uM after 48 hrs by sulforhodamine B assay; conditions: SF-295, 48 h, read-out: GI
HOP-92 = experiment: Growth inhibition of human HOP92 cells at 10 uM after 48 hrs by sulforhodamine B assay; conditions: HOP-92, 48 h, read-out: GI
HCT-116 = experiment: Growth inhibition of human HCT116 cells at 10 uM after 48 hrs by sulforhodamine B assay; conditions: HCT-116, 48 h, read-out: GI
UACC-62 = experiment: Growth inhibition of human UACC62 cells at 10 uM after 48 hrs by sulforhodamine B assay; conditions: UACC-62, 48 h, read-out: GI
PC-3 = experiment: Growth inhibition of human PC3 cells at 10 uM after 48 hrs by sulforhodamine B assay; conditions: PC-3, 48 h, read-out: GI
UO-31 = experiment: Growth inhibition of human UO31 cells at 10 uM after 48 hrs by sulforhodamine B assay; conditions: UO-31, 48 h, read-out: GI
IGROV-1 = experiment: Growth inhibition of human IGROV1 cells at 10 uM after 48 hrs by sulforhodamine B assay; conditions: IGROV-1, 48 h, read-out: GI

| SMILES | inhibition of growth at 10 µM (CAKI-1) [%] | inhibition of growth at 10 µM (MOLT-4) [%] | inhibition of growth at 10 µM (SF-295) [%] | inhibition of growth at 10 µM (HOP-92) [%] | inhibition of growth at 10 µM (HCT-116) [%] | inhibition of growth at 10 µM (UACC-62) [%] | inhibition of growth at 10 µM (PC-3) [%] | inhibition of growth at 10 µM (UO-31) [%] | inhibition of growth at 10 µM (IGROV-1) [%] |
| --- | --- | --- | --- | --- | --- | --- | --- | --- | --- |
| COc1ccc(S(=O)(=O)N2C(=O)N(S(=O)(=O)c3ccc(OC)cc3)[C@H](OC)[C@H]2OC)cc1 (relative stereo) | 36.8 | 15.6 | 6.43 | 61 | 8.94 | 20.3 | 22.2 | 35.1 | 6.17 |
| CO[C@H]1NC(=O)N(S(=O)(=O)c2ccc(Cl)cc2)[C@@H]1OC (relative stereo) | 7.49 | – | 7.91 | -13.6 | -10.3 | – | 2.67 | 22 | -23.9 |
| CO[C@H]1NC(=O)N(S(=O)(=O)c2ccc3ccccc3c2)[C@@H]1OC (relative stereo) | -7.3 | – | 4.43 | – | -4.18 | 1.65 | 2.1 | 13.7 | -25.5 |
| COc1ccc(S(=O)(=O)N2C(=O)N[C@H](OC)[C@H]2OC)c(OC)c1 (relative stereo) | 21.2 | – | 2.06 | – | – | 8.26 | 4.15 | 6.25 | -13.9 |
| COc1ccc(S(=O)(=O)N2C(=O)N[C@H](OC)[C@H]2OC)cc1 (relative stereo) | 7.51 | -5.62 | 8.51 | – | -23.4 | – | -2.45 | – | -20.7 |
| COc1ccc(S(=O)(=O)N2C(=O)N(S(=O)(=O)c3ccc(OC)cc3OC)[C@H](OC)[C@H]2OC)c(OC)c1 (relative stereo) | 17.1 | 14.2 | 4.19 | – | -2.15 | 16 | 15.9 | 23.3 | 3.77 |
| CO[C@H]1NC(=O)N(S(=O)(=O)c2c(C)cc(C)cc2C)[C@@H]1OC (relative stereo) | 15.7 | – | – | 21.3 | – | 6.82 | 4.26 | 14.7 | -7.61 |
| CO[C@@H]1[C@@H](OC)N(S(=O)(=O)c2ccc(Cl)cc2Cl)C(=O)N1S(=O)(=O)c1ccc(Cl)cc1Cl (relative stereo) | 25 | 14.2 | 16 | 60.2 | 11.9 | 4.25 | 22.5 | 15.3 | 4.16 |
| CO[C@@H]1[C@@H](OC)N(S(=O)(=O)c2ccccc2)C(=O)N1S(=O)(=O)c1ccccc1 (relative stereo) | 10.4 | 13.3 | -12.3 | 29.9 | -2.02 | -6.88 | 5.78 | 15 | 3.06 |
